Results published in patent US20050229276A1, “Method of producing cyclamen root tuber and method of proliferating cyclamen using the same” (Tokyo University of Agricultural, priority 2002, published 2005).

System: cyclamen (cultivar: Dressy Scarlet) seedling
Assay: Growth of root tubers at cut root ends of seedlings in solid media
Format: in vivo
Experimental: A cyclamen (cultivar: Dressy Scarlet) seed was immersed in an ethyl alcohol aqueous solution having an ethyl alcohol concentration of 70 wt % for 10 seconds and in a sodium hypochlorite solution having an effective chlorine concentration of 1 wt % for 10 minutes to sterilize the surface of the seed. Thereafter, this seed was washed in sterilized water 3 times to remove the sodium hypochlorite from the surface of the seed. This was sown in an MS solid medium containing 30 g/l of sucrose and 6 g/l of agar under a germ-free condition and cultured at a temperature of 20° C. under weak light for 30 days to be germinated and rooted.
The end portions of the roots of the above germinated and rooted cyclamen seedling were cut off with a scalpel, and the seedling was planted in the following solid media. As the media, a large number of experimental plots were prepared by adding NAA and BA as phytohormones to the ⅓ MS medium in concentrations shown in Tables 1 to 3 and further adding 30 to 90 g/l of sucrose. 6 g/l of agar was added to all of the media which were then sterilized in an autoclave to prepare media having a pH of 7.0. 10 ml of each of the solid media was placed in a 50 ml culture test tube. The stationary culture of the seedling planted in each of the media was carried out at 20° C. under weak light for a certain number of days to grow root tubers at the end portions of its roots.

[1] = sucrose 30 g/l, BA 0.1 mg/l, NAA 0.00 mg/l, 30-th day
[2] = sucrose 30 g/l, BA 0.1 mg/l, NAA 0.01 mg/l, 30-th day
[3] = sucrose 30 g/l, BA 0.1 mg/l, NAA 0.05 mg/l, 30-th day
[4] = sucrose 30 g/l, BA 1.0 mg/l, NAA 0.00 mg/l, 30-th day
[5] = sucrose 30 g/l, BA 1.0 mg/l, NAA 0.01 mg/l, 30-th day
[6] = sucrose 30 g/l, BA 1.0 mg/l, NAA 0.05 mg/l, 30-th day
[7] = sucrose 30 g/l, BA 10.0 mg/l, NAA 0.00 mg/l, 30-th day
[8] = sucrose 30 g/l, BA 10.0 mg/l, NAA 0.01 mg/l, 30-th day
[9] = sucrose 30 g/l, BA 10.0 mg/l, NAA 0.05 mg/l, 30-th day
[10] = sucrose 50 g/l, BA 0.1 mg/l, NAA 0.00 mg/l, 30-th day
[11] = sucrose 50 g/l, BA 0.1 mg/l, NAA 0.01 mg/l, 30-th day
[12] = sucrose 50 g/l, BA 0.1 mg/l, NAA 0.05 mg/l, 30-th day
[13] = sucrose 50 g/l, BA 1.0 mg/l, NAA 0.00 mg/l, 30-th day
[14] = sucrose 50 g/l, BA 1.0 mg/l, NAA 0.01 mg/l, 30-th day
[15] = sucrose 50 g/l, BA 1.0 mg/l, NAA 0.05 mg/l, 30-th day
[16] = sucrose 50 g/l, BA 10.0 mg/l, NAA 0.00 mg/l, 30-th day
[17] = sucrose 50 g/l, BA 10.0 mg/l, NAA 0.01 mg/l, 30-th day

c1ccc(CNc2ncnc3[nH]cnc23)cc1 [BA, benzylaminopurine]
Number of grown root tubers (BA 0.0 mg/l, sucrose 30 g/l, NAA 0.05 mg/l, 23 roots cut off, 30-th day): 23
Enlarging ratio (diameter of root tuber vs root at start = 1) (BA 0.0 mg/l, sucrose 30 g/l, NAA 0.05 mg/l, 30-th day): 8.4
Number of grown root tubers (BA 0.1 mg/l, sucrose 30 g/l, NAA 0.05 mg/l, 17 roots cut off, 30-th day): 17
Enlarging ratio (diameter of root tuber vs root at start = 1) (BA 0.1 mg/l, sucrose 30 g/l, NAA 0.05 mg/l, 30-th day): 2.3
Number of grown root tubers (BA 0.1 mg/l, sucrose 50 g/l, NAA 0.05 mg/l, 17 roots cut off, 30-th day): 16
Enlarging ratio (diameter of root tuber vs root at start = 1) (BA 0.1 mg/l, sucrose 50 g/l, NAA 0.05 mg/l, 30-th day): 3.2
Number of grown root tubers (BA 0.1 mg/l, sucrose 70 g/l, NAA 0.05 mg/l, 21 roots cut off, 30-th day): 21
Enlarging ratio (diameter of root tuber vs root at start = 1) (BA 0.1 mg/l, sucrose 70 g/l, NAA 0.05 mg/l, 30-th day): 3.8
Number of grown root tubers (BA 0.1 mg/l, sucrose 90 g/l, NAA 0.05 mg/l, 18 roots cut off, 30-th day): 18
Enlarging ratio (diameter of root tuber vs root at start = 1) (BA 0.1 mg/l, sucrose 90 g/l, NAA 0.05 mg/l, 30-th day): 5.0
Number of grown root tubers (BA 0.5 mg/l, sucrose 30 g/l, NAA 0.05 mg/l, 20 roots cut off, 30-th day): 20
Enlarging ratio (diameter of root tuber vs root at start = 1) (BA 0.5 mg/l, sucrose 30 g/l, NAA 0.05 mg/l, 30-th day): 6.6
Number of grown root tubers (BA 0.5 mg/l, sucrose 50 g/l, NAA 0.05 mg/l, 21 roots cut off, 30-th day): 20
Enlarging ratio (diameter of root tuber vs root at start = 1) (BA 0.5 mg/l, sucrose 50 g/l, NAA 0.05 mg/l, 30-th day): 9.5
Number of grown root tubers (BA 0.5 mg/l, sucrose 70 g/l, NAA 0.05 mg/l, 25 roots cut off, 30-th day): 25
Enlarging ratio (diameter of root tuber vs root at start = 1) (BA 0.5 mg/l, sucrose 70 g/l, NAA 0.05 mg/l, 30-th day): 7.2
Number of grown root tubers (BA 0.5 mg/l, sucrose 90 g/l, NAA 0.05 mg/l, 16 roots cut off, 30-th day): 16
Enlarging ratio (diameter of root tuber vs root at start = 1) (BA 0.5 mg/l, sucrose 90 g/l, NAA 0.05 mg/l, 30-th day): 6.0
Number of grown root tubers (BA 1.0 mg/l, sucrose 50 g/l, NAA 0.05 mg/l, 24 roots cut off, 30-th day): 23
Enlarging ratio (diameter of root tuber vs root at start = 1) (BA 1.0 mg/l, sucrose 50 g/l, NAA 0.05 mg/l, 30-th day): 6.3
Number of grown root tubers (BA 1.0 mg/l, sucrose 70 g/l, NAA 0.05 mg/l, 17 roots cut off, 30-th day): 17
Enlarging ratio (diameter of root tuber vs root at start = 1) (BA 1.0 mg/l, sucrose 70 g/l, NAA 0.05 mg/l, 30-th day): 5.4
Number of grown root tubers (BA 1.0 mg/l, sucrose 90 g/l, NAA 0.05 mg/l, 4 roots cut off, 30-th day): 3
Enlarging ratio (diameter of root tuber vs root at start = 1) (BA 1.0 mg/l, sucrose 90 g/l, NAA 0.05 mg/l, 30-th day): 3.8
Number of large root tubers (diameter of 1 mm or more) [1]: 4
Total number of root tubers [1]: 18
Number of large root tubers (diameter of 1 mm or more) [2]: 5
Total number of root tubers [2]: 15
Number of large root tubers (diameter of 1 mm or more) [3]: 5
Total number of root tubers [3]: 15
Number of large root tubers (diameter of 1 mm or more) [4]: 2
Total number of root tubers [4]: 6
Number of large root tubers (diameter of 1 mm or more) [5]: 3
Total number of root tubers [5]: 5
Number of large root tubers (diameter of 1 mm or more) [6]: 6
Total number of root tubers [6]: 7
Number of large root tubers (diameter of 1 mm or more) [7]: 6
Total number of root tubers [7]: 11
Number of large root tubers (diameter of 1 mm or more) [8]: 5
Total number of root tubers [8]: 5
Number of large root tubers (diameter of 1 mm or more) [9]: 4
Total number of root tubers [9]: 8
Number of large root tubers (diameter of 1 mm or more) [10]: 1
Total number of root tubers [10]: 2
Number of large root tubers (diameter of 1 mm or more) [11]: 0
Total number of root tubers [11]: 1
Average number of root tubers (per a seedling) [12]: 2.8
Number of large root tubers (diameter of 1 mm or more) [12]: 7
Total number of root tubers [12]: 14
Average number of root tubers (per a seedling) (sucrose 50 g/l, BA 0.1 mg/l, NAA 0.05 mg/l, 50-th day): 2.8
Number of large root tubers (diameter of 1 mm or more) [13]: 11
Total number of root tubers [13]: 16
Number of large root tubers (diameter of 1 mm or more) [14]: 11
Total number of root tubers [14]: 16
Average number of root tubers (per a seedling) [15]: 4.8
Number of large root tubers (diameter of 1 mm or more) [15]: 4
Total number of root tubers [15]: 9
Average number of root tubers (per a seedling) (sucrose 50 g/l, BA 1.0 mg/l, NAA 0.05 mg/l, 50-th day): 4.8
Average number of root tubers (per a seedling) (sucrose 50 g/l, BA 2.0 mg/l, NAA 0.05 mg/l, 30-th day): 0.6
Average number of root tubers (per a seedling) (sucrose 50 g/l, BA 2.0 mg/l, NAA 0.05 mg/l, 50-th day): 0.6
Average number of root tubers (per a seedling) (sucrose 50 g/l, BA 5.0 mg/l, NAA 0.05 mg/l, 30-th day): 1.8
Average number of root tubers (per a seedling) (sucrose 50 g/l, BA 5.0 mg/l, NAA 0.05 mg/l, 50-th day): 1.8
Number of large root tubers (diameter of 1 mm or more) [16]: 6
Total number of root tubers [16]: 7
Number of large root tubers (diameter of 1 mm or more) [17]: 3
Total number of root tubers [17]: 10
